Here are results for one compound from ChEMBL document CHEMBL4811304, “Design, synthesis and biological evaluation of dual mTOR/HDAC6 inhibitors in MDA-MB-231 cells” (Bioorg Med Chem Lett, 2021).

One test has as its target Histone deacetylase 1 (Homo sapiens, UniProt Q13547). The test can be described thus: Inhibition of HDAC1 (unknown origin).
Test [1] deals with MDA-MB-231. The test can be described thus: Induction of apoptosis in human MDA-MB-231 cells assessed as necrotic cells at 20 uM by annexin V/propidium iodide staining-based flow cytometry analysis (reference value: 0.099 %). It is filed as functional. (In general: A flow cytometer gives signals particle by particle.)
Test [2] concerns the target T1, Protein deacetylase HDAC6 (Homo sapiens) (UniProt Q9UBN7).
T1 sequence (whole entry): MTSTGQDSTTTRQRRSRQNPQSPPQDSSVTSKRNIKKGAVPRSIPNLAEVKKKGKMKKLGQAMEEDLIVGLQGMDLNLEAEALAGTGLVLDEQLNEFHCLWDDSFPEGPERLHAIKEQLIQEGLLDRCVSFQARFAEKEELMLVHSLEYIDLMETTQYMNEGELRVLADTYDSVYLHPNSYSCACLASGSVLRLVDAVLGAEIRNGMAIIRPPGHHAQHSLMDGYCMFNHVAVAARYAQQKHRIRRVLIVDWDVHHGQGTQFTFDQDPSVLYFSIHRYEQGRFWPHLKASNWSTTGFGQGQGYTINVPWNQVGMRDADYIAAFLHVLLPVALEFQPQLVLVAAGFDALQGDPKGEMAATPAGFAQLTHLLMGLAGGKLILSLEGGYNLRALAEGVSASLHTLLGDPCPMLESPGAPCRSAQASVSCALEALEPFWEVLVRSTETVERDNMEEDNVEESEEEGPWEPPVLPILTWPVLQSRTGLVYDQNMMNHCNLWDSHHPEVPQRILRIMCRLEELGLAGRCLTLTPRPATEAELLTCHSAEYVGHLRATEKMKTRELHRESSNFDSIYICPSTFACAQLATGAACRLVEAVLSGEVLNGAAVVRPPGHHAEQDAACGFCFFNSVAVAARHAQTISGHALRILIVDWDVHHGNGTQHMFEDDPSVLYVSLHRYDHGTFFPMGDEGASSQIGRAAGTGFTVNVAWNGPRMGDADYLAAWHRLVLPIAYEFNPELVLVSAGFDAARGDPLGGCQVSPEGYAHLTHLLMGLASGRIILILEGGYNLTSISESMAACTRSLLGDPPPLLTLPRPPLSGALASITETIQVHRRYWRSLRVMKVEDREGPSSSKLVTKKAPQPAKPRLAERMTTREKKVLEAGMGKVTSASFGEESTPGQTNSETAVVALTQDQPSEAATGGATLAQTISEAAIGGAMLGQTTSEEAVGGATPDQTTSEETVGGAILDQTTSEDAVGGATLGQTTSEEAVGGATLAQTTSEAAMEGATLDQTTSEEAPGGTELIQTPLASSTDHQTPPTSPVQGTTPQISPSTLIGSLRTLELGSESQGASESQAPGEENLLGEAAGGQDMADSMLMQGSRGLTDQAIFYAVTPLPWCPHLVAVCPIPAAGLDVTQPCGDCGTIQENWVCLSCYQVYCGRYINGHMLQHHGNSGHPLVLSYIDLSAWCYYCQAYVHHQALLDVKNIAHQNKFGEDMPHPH
The experiment in a line: Inhibition of HDAC6 in human MDA-MB-231 cells assessed as increase in acetylated lysine at 5 to 20 uM by Western blot analysis. It is filed as cell-based. The note with it: dose 5-20 µM.

A further test deals with Histone deacetylase 3 (Homo sapiens, UniProt O15379). The test can be described thus: Inhibition of HDAC3 (unknown origin).
Test [3] has as its system MDA-MB-231. The experiment in a line: Inhibition of cell migration in human MDA-MB-231 cells after 48 hrs by transwell assay. The conditions noted are these: dose 5-20 µM. Type of test: functional, cell-based.
The next test deals with Histone deacetylase 2 (Homo sapiens, UniProt Q92769). The test can be described thus: Inhibition of HDAC2 (unknown origin).
The test system of test [4] is MDA-MB-231. The experiment in a line: Induction of apoptosis in human MDA-MB-231 cells assessed as late apoptotic cells at 20 uM by annexin V/propidium iodide staining-based flow cytometry analysis (reference value: 2.34 %). It is filed as functional.
The target of test [5] is T2, Serine/threonine-protein kinase mTOR (Homo sapiens, UniProt P42345). The test can be described thus: Inhibition of mTOR (unknown origin) at 0.5 uM relative to control.
The subject of test [6] is MDA-MB-231. The test can be described thus: Induction of apoptosis in human MDA-MB-231 cells assessed as late apoptotic cells at 10 uM by annexin V/propidium iodide staining-based flow cytometry analysis (reference value: 2.34 %). It is filed as functional.
Test [7] deals with MDA-MB-231. The experiment in a line: Induction of apoptosis in human MDA-MB-231 cells assessed as increase in caspase 8 cleavage at 5 to 20 uM by Western blot analysis. It is filed as functional, cell-based. The conditions noted are these: dose 5-20 µM. On the technique in general: In western blotting, separated proteins are transferred to a membrane and probed.
Test [8] concerns MDA-MB-231. The experiment in a line: Induction of apoptosis in human MDA-MB-231 cells assessed as late apoptotic cells at 5 uM by annexin V/propidium iodide staining-based flow cytometry analysis (reference value: 2.34 %). Type of test: functional.
The test system of test [9] is MDA-MB-231. The experiment in a line: Induction of autophagy in human MDA-MB-231 cells transfected with GFP-LC3 assessed as increase in Beclin 1 level at 5 to 20 uM after 48 hrs by Western blot analysis. It is filed as functional, cell-based. The note with it: dose 5-20 µM.
Test [10] relates to MDA-MB-231. The experiment in a line: Induction of autophagy in human MDA-MB-231 cells transfected with GFP-LC3 assessed as increase in LC3II level at 5 to 20 uM after 48 hrs by Western blot analysis. Type of test: functional, cell-based. The conditions noted are these: dose 5-20 µM.
Test [11] deals with MDA-MB-231. The experiment in a line: Induction of apoptosis in human MDA-MB-231 cells assessed as increase in PARP cleavage at 5 to 20 uM by Western blot analysis. It is filed as functional, cell-based. The conditions noted are these: dose 5-20 µM.
For test [12], the system named is MDA-MB-231. The test can be described thus: Induction of apoptosis in human MDA-MB-231 cells assessed as live cells at 5 uM by annexin V/propidium iodide staining-based flow cytometry analysis (reference value: 96.7 %). Type of test: functional.
The subject of a further test is MDA-MB-468. The test can be described thus: Antiproliferative activity against human MDA-MB-468 cells measured after 48 hrs. It is filed as functional, cell-based. The conditions noted are these: MDA-MB-468, 48 h.
Test [13] deals with T1, Protein deacetylase HDAC6 (Homo sapiens). The experiment in a line: Binding affinity to HDAC6 in human MDA-MB-231 cells assessed as increase in thermal stability at 10 uM measured at 6 hrs by CETSA. It is filed as cell-based.
The subject of test [14] is MDA-MB-231. The test can be described thus: Induction of apoptosis in human MDA-MB-231 cells assessed as early apoptotic cells at 10 uM by annexin V/propidium iodide staining-based flow cytometry analysis (reference value: 0.69 %). It is filed as functional.
Test [15] relates to MDA-MB-231. The experiment in a line: Induction of apoptosis in human MDA-MB-231 cells assessed as increase in caspase 3 cleavage at 5 to 20 uM by Western blot analysis. It is filed as functional, cell-based. The conditions noted are these: dose 5-20 µM.
Test [16] has as its target T2, Serine/threonine-protein kinase mTOR. The test can be described thus: Inhibition of mTOR in human MDA-MB-231 cells assessed as decrease in p70s6k phosphorylation at […] residue at 5 to 20 uM by Western blot analysis. Type of test: cell-based. The conditions noted are these: dose 5-20 µM.

Active and inactive are the calls of the source. The calls are words filed in the database; no cut-off is given here.

Sequence of Histone deacetylase 1 (Q13547 whole entry): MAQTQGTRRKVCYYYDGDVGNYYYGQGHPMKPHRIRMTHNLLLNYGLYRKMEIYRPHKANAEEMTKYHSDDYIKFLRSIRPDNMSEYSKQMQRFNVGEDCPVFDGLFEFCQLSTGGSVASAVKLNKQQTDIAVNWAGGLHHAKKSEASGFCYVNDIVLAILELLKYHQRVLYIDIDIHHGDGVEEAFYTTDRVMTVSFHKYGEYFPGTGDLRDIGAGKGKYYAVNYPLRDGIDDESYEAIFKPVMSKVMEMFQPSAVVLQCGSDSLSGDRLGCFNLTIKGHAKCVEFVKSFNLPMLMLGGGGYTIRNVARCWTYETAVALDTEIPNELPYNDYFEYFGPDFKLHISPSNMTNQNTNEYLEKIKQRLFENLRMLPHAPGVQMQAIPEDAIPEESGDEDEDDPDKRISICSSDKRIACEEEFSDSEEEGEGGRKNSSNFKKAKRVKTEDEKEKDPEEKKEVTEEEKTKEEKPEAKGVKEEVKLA
Sequence of Histone deacetylase 2 (Q92769 whole entry): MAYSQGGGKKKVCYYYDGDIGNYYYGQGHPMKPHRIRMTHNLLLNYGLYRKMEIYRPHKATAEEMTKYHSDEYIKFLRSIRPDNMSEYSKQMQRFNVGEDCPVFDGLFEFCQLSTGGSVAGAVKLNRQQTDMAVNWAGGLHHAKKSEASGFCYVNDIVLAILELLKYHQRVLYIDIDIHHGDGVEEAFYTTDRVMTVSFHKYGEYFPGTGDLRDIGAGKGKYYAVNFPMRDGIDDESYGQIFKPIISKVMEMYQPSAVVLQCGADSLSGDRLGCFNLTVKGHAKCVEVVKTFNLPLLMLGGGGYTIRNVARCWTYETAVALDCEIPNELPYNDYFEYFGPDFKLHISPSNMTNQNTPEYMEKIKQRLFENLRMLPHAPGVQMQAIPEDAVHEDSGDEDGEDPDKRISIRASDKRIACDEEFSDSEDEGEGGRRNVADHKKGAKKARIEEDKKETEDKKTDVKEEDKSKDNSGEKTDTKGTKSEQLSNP
Sequence of Histone deacetylase 3 (O15379 whole entry): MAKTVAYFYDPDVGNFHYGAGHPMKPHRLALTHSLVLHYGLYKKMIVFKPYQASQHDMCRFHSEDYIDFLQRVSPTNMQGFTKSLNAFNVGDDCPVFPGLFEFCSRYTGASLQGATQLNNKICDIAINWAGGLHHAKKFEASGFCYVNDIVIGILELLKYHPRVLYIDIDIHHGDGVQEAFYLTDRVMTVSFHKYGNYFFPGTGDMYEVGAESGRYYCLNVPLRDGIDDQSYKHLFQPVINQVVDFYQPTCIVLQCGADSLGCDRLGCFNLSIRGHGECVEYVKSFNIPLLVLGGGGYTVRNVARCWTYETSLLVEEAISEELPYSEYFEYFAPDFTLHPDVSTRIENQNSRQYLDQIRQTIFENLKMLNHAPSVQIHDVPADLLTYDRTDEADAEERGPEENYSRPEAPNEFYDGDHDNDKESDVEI

By IC50 is commonly meant the point on the concentration scale where inhibition reaches its midpoint. A word on the inhibition: it is the share of the control response that was lost under treatment. For `CN1CCN(c2nc(-c3ccc(C(=O)NO)cc3)nc3cc(Cl)ccc23)CC1`, the IC50 stood at 0.359 µM on Histone deacetylase 1, 0.414 µM at Histone deacetylase 3, 0.374 µM at Histone deacetylase 2 and 14.3 µM in the test on MDA-MB-468. Besides, the Activity in the test on MDA-MB-231 [1] was 0.46%; in the test on MDA-MB-231 [4], 34.3%; with MDA-MB-231 [6], 22.4%; in the test with MDA-MB-231 [8] it was 6.39%; with MDA-MB-231 [12] it was 88.1%; in the test on MDA-MB-231 [14], 7.95%. The inhibition entry (in [2]; in the test with MDA-MB-231 [3]; in [16]) was “Active” throughout. The compound further displayed an inhibition in test [5] of 91.4%. For the same compound, the outcome (in the test with MDA-MB-231 [7]; with MDA-MB-231 [9]; in the test on MDA-MB-231 [10]; in the test on MDA-MB-231 [11]; in test [13]; in the test with MDA-MB-231 [15]) was Active.
